Experimental data: patent publication US20160198747A1, “1H-PYRROLE-DICARBONYL-DERIVATIVES AND THEIR USE AS FLAVORING AGENTS” (IMAX DISCOVERY GMBH, priority 2013, published 2016)
“Also recorded” adds a separate entry of the source.

Assays:
[1] = as described in US 2009/0311401; cited from earlier work
[2] = system: group of 16 trained panelists; experiment: Sensory Test 2: trained panelists score a beef broth (bouillon) on eight descriptors; type: in vivo, human; conditions: scale 0 to 6, average of 16 panelists
Source text: A group of 16 trained panelists was instructed to evaluate the taste of a broth (bouillon) containing 0.5 wt. % of beef extract (Ref-beef) according to eight different descriptors in several repetitions. In a next step, these panelists were asked to rate said reference beef broth “Ref-beef” (presented at each testing session as a reference) against the following two different compositions consisting of “Ref-beef” and additionally a specific amount of the respective to be tested substance:
“Beef-I”=“Ref-beef”+10 ppm of the compound of Formula (I) of Synthesis Example 1,
“Beef-MSG”=“Ref-beef”+500 ppm (0.05 wt. %) of MSG
“Beef-MSG” was used as a positive umami standard.
The panelists judged the strength/intensity of the eight different descriptors in each case by awarding scores on a scale of from 0 (not corresponding to descriptor) to 6 (very strong). The results are present in the following table and FIGURE. All data are the averaged values for the group of 16 trained panelists for the respective scores for each descriptor.

[3] = system: bacterial strains of Salmonella typhimurium; experiment: in vitro Ames plate incorporation test; type: cell-based
Source text: (§1) A particularly preferred compound of the invention is 4-ethyl 2-pyridin-2-ylmethyl-3,5-dimethyl-1H-pyrrole-2,4-dicarboxylate. […] It performs as a MSG replacer at the concentration of 4-20 ppm, depending on the application, whereas at the concentration of 0.5-10 ppm, depending on the application, it performs as a MSG enhancer. The compound is not mutagenic in a standard in vitro Ames plate incorporation test in bacterial strains of Salmonella typhimurium either in the absence or presence of metabolic activation.

[4] = Sensory Test 3: Sip and Spit evaluation in water, bouillons, meat products and snacks; type: in vivo, human
Experimental: An additional sensory analysis was performed for the compound of Formula (I) of Synthesis Example 1, by “Sip and Spit” for all evaluations and the key results are summarized in the following table.

[5] = system: expert panel (8 panelists); experiment: Sensory Test 1: expert panel, aqueous solution, sipping, holding 10 seconds, spitting out; type: in vivo, human
Experimental: An expert panel (8 panelists) evaluated the sensory properties of the compound of Formula (I) of Synthesis Example 1. The compound of Formula (I) of Synthesis Example 1 was first dissolved in ethanol and then added in the corresponding amount in water. The aqueous solution was evaluated by sipping, holding it in the mouth for 10 seconds, and then spitting it out. The description “accumulating” means that the flavor perception gradually (further) increases a few seconds after taking the solution into the mouth, often even some time after the solution has been spit out.

human sensory panel = human sensory panel (summary statement); type: in vivo
Source text: as §1

solubility = type: physicochemical
[6] = stability to heat and to day-light; type: physicochemical
[7] = Beef-MSG = Ref-beef (broth, 0.5 wt. % beef extract) + 500 ppm (0.05 wt. %) MSG
[8] = Beef-I = Ref-beef (broth, 0.5 wt. % beef extract) + 10 ppm compound

CCNC(=O)O[C@H]1C[C@H](C)CC[C@H]1C(C)C (racemic) [racemate of (1S,2S,5R)-2-isopropyl-5-methylcyclohexyl ethyl carbamate, (1S,2S,5R)-2-isopropyl-5-methylcyclohexyl ethyl carbamate]
flavor profile [1]: cooling, umami, menthol note

N[C@@H](CCC(=O)O)C(=O)[O-].[Na+] [MSG, monosodium glutamate, reference compound]
Long-lastingness score [2, 7]: 4.3
Meaty score [2, 7]: 5.3
Mouth-watering score [2, 7]: 4.4
Mouthfeel score [2, 7]: 4.8
Roasty score [2, 7]: 3.8
Salty score [2, 7]: 2.5
Sour score [2, 7]: 2.9
Sweet score [2, 7]: 2.1

CCOC(=O)c1c(C)[nH]c(C(=O)OCc2ccccn2)c1C [Synthesis Example 1, 3,5-dimethyl-1H-pyrrole-2,4-dicarboxylic acid, 4-ethyl 2-(2-pyridinylmethyl)ester]
mutagenicity, Ames plate incorporation test ([3]; absence of metabolic activation): not mutagenic
mutagenicity, Ames plate incorporation test ([3]; presence of metabolic activation): not mutagenic
MSG ENHANCEMENT Chicken Bouillon + 0.01% MSG vs. 0.04% MSG, sensory description ([4]; 0.5 ppm in chicken bouillon + 0.01% MSG): warm, meaty; also recorded: fatty, slightly salty, round,; also recorded: slight sweet, good impact,
Performance in Salted Water, sensory description ([4]; 3 ppm in salted water): clean, sweet umami, good
Performance in Water, sensory description ([4]; 3 ppm in water): clean, sweet umami, good
MSG REPLACEMENT Chicken Bouillon vs. 0.04% MSG, sensory description ([4]; 4 ppm in chicken bouillon): good, round, nice, clean
MSG ENHANCEMENT Sour Cream & Onion Chips + 0.05% MSG vs. 0.4% MSG, sensory description ([4]; 6 ppm in sour cream & onion chips + 0.05% MSG): umami, pleasant, good
MSG ENHANCEMENT Crackers + 0.03% MSG vs. 0.1% MSG, sensory description ([4]; 10 ppm in crackers + 0.03% MSG): umami, salivating, good
MSG ENHANCEMENT Marinated Chicken + 0.05% MSG vs. 0.3% MSG, sensory description ([4]; 10 ppm in marinated chicken + 0.05% MSG): bad, eggy, white meat,; also recorded: malty
MSG ENHANCEMENT Pork Burger + 0.03% MSG vs. 0.1% MSG, sensory description ([4]; 10 ppm in pork burger + 0.03% MSG): umami, sweet
MSG REPLACEMENT Cocido Ham vs. 0.1% MSG, sensory description ([4]; 20 ppm in cocido ham): stronger, ok, meaty, sweet, and good
MSG REPLACEMENT Marinated Chicken vs. 0.3% MSG, sensory description ([4]; 20 ppm in marinated chicken): meaty, umami balanced,; also recorded: seems salty
MSG REPLACEMENT Sour Cream & Onion Chips vs. 0.4% MSG, sensory description ([4]; 20 ppm in sour cream & onion chips): umami balanced, pleasant,; also recorded: lingering, less salty, good,; also recorded: full, salivating, sweet, more; also recorded: creamy
MSG ENHANCEMENT Chicken Bouillon + 0.01% MSG vs. 0.04% MSG, concentration ([4]; chicken bouillon + 0.01% MSG, vs. 0.04% MSG): 0.5 ppm
MSG REPLACEMENT Chicken Bouillon vs. 0.04% MSG, concentration ([4]; chicken bouillon, vs. 0.04% MSG): 4 ppm
MSG REPLACEMENT Cocido Ham vs. 0.1% MSG, concentration ([4]; cocido ham, vs. 0.1% MSG): 20 ppm
MSG ENHANCEMENT Crackers + 0.03% MSG vs. 0.1% MSG, concentration ([4]; crackers + 0.03% MSG, vs. 0.1% MSG): 10 ppm
concentration at which it performs as a MSG enhancer ([4]; depending on the application): 0.5-10 ppm
concentration at which it performs as a MSG replacer ([4]; depending on the application): 4-20 ppm
MSG ENHANCEMENT Marinated Chicken + 0.05% MSG vs. 0.3% MSG, concentration ([4]; marinated chicken + 0.05% MSG, vs. 0.3% MSG): 10 ppm
MSG REPLACEMENT Marinated Chicken vs. 0.3% MSG, concentration ([4]; marinated chicken, vs. 0.3% MSG): 20 ppm
MSG ENHANCEMENT Pork Burger + 0.03% MSG vs. 0.1% MSG, concentration ([4]; pork burger + 0.03% MSG, vs. 0.1% MSG): 10 ppm
MSG REPLACEMENT Pork Burger vs. 0.1% MSG, concentration ([4]; pork burger, vs. 0.1% MSG): 20 ppm
MSG ENHANCEMENT Sour Cream & Onion Chips + 0.05% MSG vs. 0.4% MSG, concentration ([4]; sour cream & onion chips + 0.05% MSG, vs. 0.4% MSG): 6 ppm
MSG REPLACEMENT Sour Cream & Onion Chips vs. 0.4% MSG, concentration ([4]; sour cream & onion chips, vs. 0.4% MSG): 20 ppm
Description of sensory effects ([5]; 3 ppm + 0.05 wt. % MSG in water): Strong umami, meaty, mouthfeel,; also recorded: mouth-watering
Description of sensory effects ([5]; 3 ppm in water): Strong umami, slightly metallic,; also recorded: some delay but lingering
Description of sensory effects ([5]; 30 ppm + 0.05 wt. % MSG in water): Umami, meaty, accumulating
Description of sensory effects ([5]; 30 ppm in water): Strong umami, long lasting
after-taste or off notes (human sensory panel): No after-taste or off notes are perceived
taste perception (human sensory panel; 3 ppm): very pleasant savory taste perception
solubility (solubility): good solubility
stability to day-light ([6]; day-light): stable
stability to heat ([6]; heat): stable
Long-lastingness score [2, 8]: 5.4
Meaty score [2, 8]: 5.5
Mouth-watering score [2, 8]: 4.9
Mouthfeel score [2, 8]: 5.5
Roasty score [2, 8]: 3.9
Salty score [2, 8]: 2.7
Sour score [2, 8]: 2.9
Sweet score [2, 8]: 1.5
